Data as given in ChEMBL document CHEMBL5303304, “EUbOPEN Chemogenomics Library - IncuCyte” (2023).

Columns and labels:
Format in all cases: toxicity, cell-based
U2OS = experiment: Incucyte cell viability with U2OS; conditions: human, 10 µM, compound concentration 10 uM
Fibroblast = experiment: Incucyte cell viability with human fibroblast; conditions: 10 µM, compound concentration 10 uM
HEK-293T = experiment: Incucyte cell viability with HEK293T; conditions: human, 10 µM, compound concentration 10 uM
Also: unitless GR value; below 1 slowed growth and below 0 cell loss.

| Compound | Growth Rate (U2OS; 0 h, replicate number 1) | Growth Rate (U2OS; 0 h, replicate number 2) | Growth Rate (U2OS; 6 h, replicate number 1) | Growth Rate (U2OS; 6 h, replicate number 2) | Growth Rate (U2OS; 12 h, replicate number 1) | Growth Rate (U2OS; 12 h, replicate number 2) | Growth Rate (U2OS; 18 h, replicate number 2) | Growth Rate (U2OS; 24 h, replicate number 2) | Growth Rate (Fibroblast; 6 h, replicate number 1) | Growth Rate (Fibroblast; 12 h, replicate number 1) | Growth Rate (Fibroblast; 18 h, replicate number 1) | Growth Rate (HEK-293T; 0 h, replicate number 1) | Growth Rate (HEK-293T; 0 h, replicate number 2) | Growth Rate (U2OS; 18 h, replicate number 1) | Growth Rate (U2OS; 24 h, replicate number 1) | Growth Rate (Fibroblast; 0 h, replicate number 2) | Growth Rate (Fibroblast; 6 h, replicate number 2) | Growth Rate (Fibroblast; 12 h, replicate number 2) | Growth Rate (Fibroblast; 24 h, replicate number 2) | Growth Rate (HEK-293T; 6 h, replicate number 2) | further results |
| --- | --- | --- | --- | --- | --- | --- | --- | --- | --- | --- | --- | --- | --- | --- | --- | --- | --- | --- | --- | --- | --- |
| O=C(NCC1(N2CCN(c3ccccc3)CC2)CCOCC1)c1cccnc1Sc1ccccc1 | 0.14 | -0.32 | 0.97 | 0.73 | 0.95 | 0.86 | 0.92 | 0.93 | 0.02 | -1 | -0.49 | 0.97 | -0.38 |  |  |  |  |  |  |  |  |
| c1cc(-c2cnn3cc(-c4ccc(N5CCNCC5)cc4)cnc23)c2cccnc2c1 | -0.73 |  | -0.87 | -0.62 | -0.69 | -0.61 | -0.48 | -0.43 | -0.19 | -1 | -0.44 | -0.92 | 0.43 | -0.57 | -0.49 | -0.9 | -1 | -0.91 | -0.55 | -0.96 | Growth Rate (Fibroblast; 18 h, replicate number 2): -0.74; Growth Rate (Fibroblast; 24 h, replicate number 1): 0.25; Growth Rate (HEK-293T; 6 h, replicate number 1): -0.69; Growth Rate (HEK-293T; 12 h, replicate number 1): -0.55; Growth Rate (HEK-293T; 12 h, replicate number 2): -0.77; Growth Rate (HEK-293T; 18 h, replicate number 1): -0.44; Growth Rate (HEK-293T; 18 h, replicate number 2): -0.58; Growth Rate (HEK-293T; 24 h, replicate number 1): -0.34; Growth Rate (HEK-293T; 24 h, replicate number 2): -0.45 |
| COc1cc(OC)c(NC(=O)Nc2cc(C)on2)cc1Cl |  |  |  | 0.98 |  |  | 0.82 |  | 0.03 | -1 |  | 0.72 | 0.7 | 0.96 |  | -0.96 |  |  |  |  |  |
| O=C(NCc1cccc(O)c1)Nc1nc(-c2ccncc2)cs1 |  | -0.94 |  |  |  |  |  | 1 | -1 |  |  | -0.16 | -0.82 |  | 0.88 | -0.55 |  |  |  |  |  |
| N#Cc1ccnc(Nc2cc(C3CCN(C4COC4)CC3)cc(N3CCC(F)(F)C3)n2)c1 |  | -1 | 0.88 | 0.29 | 0.44 | 0.38 | 0.46 | 0.44 |  |  | -0.85 | -0.35 |  | 0.22 | 0.18 |  | -1 | -0.47 | 0.43 | -0.9 | Growth Rate (Fibroblast; 18 h, replicate number 2): 0.21; Growth Rate (Fibroblast; 24 h, replicate number 1): -0.29; Growth Rate (HEK-293T; 6 h, replicate number 1): 0.58; Growth Rate (HEK-293T; 12 h, replicate number 1): 0.85; Growth Rate (HEK-293T; 12 h, replicate number 2): -0.54; Growth Rate (HEK-293T; 18 h, replicate number 1): 0.46; Growth Rate (HEK-293T; 18 h, replicate number 2): -0.37; Growth Rate (HEK-293T; 24 h, replicate number 1): 0.44; Growth Rate (HEK-293T; 24 h, replicate number 2): -0.26 |
| COc1ccc(OC)c(-c2ccc(NC(=O)c3ccncc3F)cc2)c1 | -0.54 | -0.01 | 0.57 | 0.63 | 0.56 | 0.84 | 0.87 | 0.91 |  |  | -0.35 | -0.77 |  | 0.74 | 0.87 |  | -0.75 | 0.93 | 0.92 |  | Growth Rate (Fibroblast; 0 h, replicate number 1): -0.06 |
| O=C(NS(=O)(=O)N1CCC1)c1cc(C2CC2)c(OCC23CC4CC(CC(C4)C2)C3)cc1F | -0.5 | -0.98 | 0.59 | 0.7 |  | 0.73 | 0.8 | 0.87 | 0.24 |  | 0.03 | 0.85 | 0.39 |  |  |  | -1 | -0.01 | 0.37 | 0.7 | Growth Rate (Fibroblast; 0 h, replicate number 1): 0.19; Growth Rate (Fibroblast; 18 h, replicate number 2): 0.31; Growth Rate (Fibroblast; 24 h, replicate number 1): 0.81; Growth Rate (HEK-293T; 6 h, replicate number 1): 0.69; Growth Rate (HEK-293T; 12 h, replicate number 1): 0.88; Growth Rate (HEK-293T; 18 h, replicate number 1): 0.87; Growth Rate (HEK-293T; 18 h, replicate number 2): 0.99; Growth Rate (HEK-293T; 24 h, replicate number 1): 0.8; Growth Rate (HEK-293T; 24 h, replicate number 2): 0.92 |
| O=C1N=C(NCc2cccs2)S/C1=C\c1ccc2ncccc2c1 | 0.58 | -0.23 |  |  | -0.76 | 0.57 | 0.67 | 0.78 | 0.04 |  |  | -0.36 | -0.64 | 0.78 | 0.64 |  |  |  |  |  | Growth Rate (Fibroblast; 0 h, replicate number 1): -0.1 |
| CN(Cc1cccc(F)c1CNc1cc(F)c(S(=O)(=O)Nc2cscn2)c(F)c1)C(C)(C)C |  |  | 0.37 | 0.58 | 0.72 | 0.86 | 0.97 | 0.96 |  |  | 0.65 | 0.6 | 0.65 | 0.89 | 0.9 | -0.81 |  |  |  |  |  |
| CN1CCN(c2nc(N)c3ccccc3n2)CC1 |  | -0.89 | 0.43 | 0.36 | 0.81 | 0.53 |  | 0.83 | 0.45 | -1 | 0.78 | 0.4 | 0.8 | 0.76 | 0.77 |  |  | 0.67 |  | 0.91 |  |
| Cl.Cl.c1ccc2c(-c3cnn4cc(-c5ccc(N6CCNCC6)cc5)cnc34)ccnc2c1 | -0.92 |  | -0.9 | -0.64 | -0.48 | -0.46 | -0.37 |  | -0.76 | -1 |  | -0.16 |  | -0.35 | -0.32 | -0.67 |  |  |  | -0.92 | Growth Rate (HEK-293T; 12 h, replicate number 2): -0.66; Growth Rate (HEK-293T; 18 h, replicate number 2): -0.48; Growth Rate (HEK-293T; 24 h, replicate number 2): -0.38 |
| COc1cc2ncnc(Nc3ccc(Oc4ccccc4)cc3C)c2cc1OC.Cl | 0.5 | -0.92 |  | 0.35 |  | 0.74 |  |  | 0.3 | -1 |  | -0.14 | -0.45 |  |  | -0.78 |  |  |  |  | Growth Rate (Fibroblast; 0 h, replicate number 1): -0.71 |
